Results from patent US20240132464A1, “HETEROCYCLIC COMPOUNDS AS E3 LIGASE INHIBITORS” (Accutar Biotechnology Inc., priority 2022, published 2024).
pIC50: −log10 of the molar value.

Target: T1, GID4 (Uniprot ID: Q81VV7, residues 124-289) (Homo sapiens, UniProt Q8IVV7)
T1 construct: GID4 (Uniprot ID: Q81VV7, residues 124-289)
T1 sequence (Q8IVV7 124-289): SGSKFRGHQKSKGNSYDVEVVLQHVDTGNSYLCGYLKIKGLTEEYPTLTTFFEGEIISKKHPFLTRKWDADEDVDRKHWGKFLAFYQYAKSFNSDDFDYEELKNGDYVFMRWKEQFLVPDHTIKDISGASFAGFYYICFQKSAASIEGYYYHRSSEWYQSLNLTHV
Test: GID4 competitive binding assay (AlphaScreen, GID4/degron peptide PGLW)
Details: 24 nM GID4, 48 nM biotinylated degron peptide PGLW, 4° C., read-out: IC50 (Inhibition of GID4/Degron binding by test compounds)
Procedure: GID4 Competitive Binding Assay
GID4 binding affinity of compounds disclosed herein was measured by monitoring the interaction of GID4 with its degron peptide (PGLW) in the presence of the test compounds. A truncated version of GID4 (Uniprot ID: Q81VV7, residues 124-289) with a 6*His at its C-terminus was used in this assay. Tetrapeptide, PGLW, was synthesized and tagged with an additional lysine labeled with biotin at its sidechain.
GID4 competitive binding assays were performed in a 384-well plate at 4° C. in a 20 μL reaction volume. Briefly, 24 nM GID4 (final concentration) proteins were pre-incubated with 48 nM biotinylated degron peptide (final concentration) in an assay buffer containing 20 mM HEPES, pH 7.5, 100 mM NaCl, 1 mM DTT, 0.1% Tween-20, and 0.05% BSA in the presence of the test compound in 2% DMSO (final concentration) at various concentrations for 2 h. 5 ug/ml Streptavidin ALphaScreen donor beads and 5 ug/ml nickel chelate (Ni-NTA) ALphaScreen acceptor beads (PerkinElmer, 6760619C) (final concentrations) were then added to the mixture. After an incubation of 1 h at 4° C., the fluorescent signals were obtained on the EnVision® 2105 Multilabel Plate Reader (PerkinElmer).
Raw ALphaScreen data were converted to a percentage of inhibition (relative to DMSO) using the following equations: […]
For a given test compound concentration X:
Signal (X)=Signal (GID4 & peptide & compound)−Signal (GID4 & buffer & compound)
Percentage of inhibition at concentration X=[1−Signal(X)/Signal (DMSO)]*100% b)
The IC50 values were determined by nonlinear regression of plots of [inhibitor] vs. percentage of inhibition with variable slope.
Table 3 summarizes the inhibition of binding between GID4 and degron peptide with compounds of the present disclosure. Compounds were ranked into bins as follows for IC50: A indicates <500 nM; B indicates 500 nM-5000 nM; C indicates >5000 nM.

Row | Compound | pIC50
1 | CN(C)CCCNC(=O)c1ccc(-c2cc(O)c3nccc(N)c3c2)cc1 [Compound 265, 4-(4-amino-8-hydroxyquinolin-6-yl)-N-(3-(dimethylamino)propyl)benzamide] | 5.30 to 6.30
2 | CN(C)CCNC(=O)c1ccc(-c2cc(O)c3ncnc(N)c3c2)cc1 [Compound 267, 4-(4-amino-8-hydroxyquinazolin-6-yl)-N-(2-(dimethylamino)ethyl)benzamide] | > 6.30
3 | CN1CC(CNC(=O)c2ccc(-c3cc(O)c4ncccc4c3)cc2)C1 [Compound 298, 4-(8-hydroxyquinolin-6-yl)-N-((1-methylazetidin-3-yl)methyl)benzamide] | > 6.30
4 | Cn1nccc1C1CCCN(c2nc(N)nc3c2CCC3)C1 (stereo not drawn) [Compound 215, 4-(3-(1 methyl-1H-pyrazol-5-yl)piperidin-1-yl)-6,7-dihydro-5H-cyclopenta[d]pyrimidin-2-amine] | < 5.30
5 | CC(C)c1cc(N2CCCC(c3nc4ccccc4[nH]3)C2)nc(N)n1 (stereo not drawn) [Compound 181, 4-(3-(1H-benzo[d]imidazol-2-yl)piperidin-1-yl)-6-isopropylpyrimidin-2-amine] | < 5.30
6 | CC(C)c1cc(N2CCCC(O)(c3ccccc3Br)C2)nc(N)n1 (stereo not drawn) [Compound 236, 1-(2-amino-6-isopropylpyrimidin-4-yl)-3-(2-bromophenyl)piperidin-3-ol] | 5.30 to 6.30
7 | Nc1nc(C2CC2)cc(N2CCCC(c3cnc4ccccn34)C2)n1 (stereo not drawn) [Compound 139, 4-cyclopropyl-6-(3-(imidazo[1,2-a]pyridin-3-yl)piperidin-1-yl)pyrimidin-2-amine] | > 6.30
8 | CN1CCC(NC(=O)c2n[nH]c3ccc(-c4ccc5ccnc(N)c5c4)cc23)CC1 [Compound 338, 5-(1-aminoisoquinolin-7-yl)-N-(1-methylpiperidin-4-yl)-1H-indazole-3-carboxamide] | > 6.30
9 | CN(C)CCCNC(=O)C1CC=C(c2cc(O)c3ncccc3c2)CC1 (stereo not drawn) [Compound 305, N-(3-(dimethylamino)propyl)-4-(8-hydroxyquinolin-6-yl)cyclohex-3-ene-1-carboxamide] | 5.30 to 6.30
10 | CN(C)CCCNC(=O)c1ccc(-c2cc(O)c3ncccc3c2)cc1N [Compound 312, 2-amino-N-(3-(dimethylamino)propyl)-4-(8-hydroxyquinolin-6-yl)benzamide] | > 6.30
11 | CN(C)C1CCN(C(=O)c2n[nH]c3ccc(-c4ccc5ccnc(N)c5c4)cc23)CC1 [Compound 335, (5-(1-aminoisoquinolin-7-yl)-1H-indazol-3-yl)(4-(dimethylamino)piperidin-1-yl)methanone] | > 6.30
12 | Nc1nccc2ccc(-c3csc(C(=O)N4CCCC4)c3)cc12 [Compound 349, (4-(1-aminoisoquinolin-7-yl)thiophen-2-yl)(pyrrolidin-1-yl)methanone] | < 5.30
13 | c1ccn2c(C3CCCN(c4ncnc5[nH]ccc45)C3)cnc2c1 (stereo not drawn) [Compound 90, 4-(3-(imidazo[1,2-a]pyridin-3-yl)piperidin-1-yl)-7H-pyrrolo[2,3-d]pyrimidine] | < 5.30
14 | CN(C)CCCNC(=O)c1ccc(-c2cc(O)c3ncccc3c2)s1 [Compound 296, N-(3-(dimethylamino)propyl)-5-(8-hydroxyquinolin-6-yl)thiophene-2-carboxamide] | > 6.30
15 | CC(C)c1cc(N2CCCC(c3ccn[nH]3)C2)nc(N)n1 (stereo not drawn) [Compound 210, 4-(3-(1H-pyrazol-5-yl)piperidin-1-yl)-6-isopropylpyrimidin-2-amine] | < 5.30
16 | CN(C)CCCNC(=O)c1ccc(-c2cc(O)c3ncc(=O)[nH]c3c2)cc1 [Compound 273, N-(3-(dimethylamino)propyl)-4-(8-hydroxy-3-oxo-3,4-dihydroquinoxalin-6-yl)benzamide] | 5.30 to 6.30
17 | CNCCCNC(=O)c1ccc(-c2cc(O)c3ncccc3c2)cc1 [Compound 303, 4-(8-hydroxyquinolin-6-yl)-N-(3-(methylamino)propyl)benzamide] | > 6.30
18 | CNc1cc(N2CCCC(c3cnc4ccccn34)C2)nc(NC)n1 (racemic) [Compound 124, (R/S)-6-(3-(imidazo[1,2-a]pyridin-3-yl)piperidin-1-yl)-N2,N4-dimethylpyrimidine-2,4-diamine] | 5.30 to 6.30
19 | CN(C)CCCNC(=O)c1c(Cl)cc(-c2cc(O)c3ncccc3c2)cc1Cl [Compound 318, 2,6-dichloro-N-(3-(dimethylamino)propyl)-4-(8-hydroxyquinolin-6-yl)benzamide] | > 6.30
20 | Oc1cc(C2=CCNCC2)cc2cccnc12 [Compound 324, 6-(1,2,3,6-tetrahydropyridin-4-yl)quinolin-8-ol] | 5.30 to 6.30

Now from value to compound:

Row | pIC50 | Compound
21 | < 5.30 | Nc1nc(C2CC2)cc(N2CCNC(c3cnc4ccccn34)C2)n1 (single isomer, unassigned) [Compound 104, (R/S)-4-cyclopropyl-6-(3-(imidazo[1,2-a]pyridin-3-yl)piperazin-1-yl)pyrimidin-2-amine]
22 | < 5.30 | Nc1cc(N2CCCC(c3ccn[nH]3)C2)nc(N)n1 (stereo not drawn) [Compound 193, 6-(3-(1H-pyrazol-5-yl)piperidin-1-yl)pyrimidine-2,4-diamine]
23 | > 6.30 | CN1CCN(c2cc(NCC3CC3)nc(N)n2)CC1c1ccccc1Br (single isomer, unassigned) [Compound 99, (R/S)-6-(3-(2-bromophenyl)-4-methylpiperazin-1-yl)-N4-(cyclopropylmethyl)pyrimidine-2,4-diamine]
24 | 5.30 to 6.30 | CC(C)c1cc(N2CCNC(c3cc(N4CC(CO)C4)ccc3Br)C2)nc(N)n1 (single isomer, unassigned) [Compound 31, (S/R)-(1-(3-(4-(2-amino-6-isopropylpyrimidin-4-yl)piperazin-2-yl)-4-bromophenyl)azetidin-3-yl)methanol]
25 | 5.30 to 6.30 | CN1CCN(c2ccc(Br)c(C3CN(c4cc(N)nc(N)n4)CCN3)c2)CC1 (single isomer, unassigned) [Compound 51, R or S 6-(3-(2-bromo-5-(4-methylpiperazin-1-yl)phenyl)piperazin-1-yl)pyrimidine-2,4-diamine]
26 | 5.30 to 6.30 | CN1CCN(C(=O)c2ccc(Br)c([C@H]3CN(c4cc(N)nc(N)n4)CCN3)c2)CC1 (racemic) [Compound 16, (S/R)-(4-bromo-3-(4-(2,6-diaminopyrimidin-4-yl)piperazin-2-yl)phenyl)(4-methylpiperazin-1-yl)methanone]
27 | < 5.30 | Nc1nc(N)c(F)c(N2CCOC(c3ccccc3Br)C2)n1 (single isomer, unassigned) [Compound 48, (S/R)-6-(2-(2-bromophenyl)morpholino)-5-fluoropyrimidine-2,4-diamine]
28 | 5.30 to 6.30 | Nc1cc(N2CCOC(c3ccccc3Br)C2)nc(N)n1 (racemic) [Compound 145, (R/S)-6-(2-(2-bromophenyl)morpholino)pyrimidine-2,4-diamine]
29 | > 6.30 | CNc1cc(N2CCNC(c3ccccc3Br)C2)nc(N)n1 (stereo not drawn) [Compound 167]
30 | > 6.30 | Nc1cc(N2CCOC(c3ccccc3Br)C2)nc(N)n1 (single isomer, unassigned) [Compound 146, (S/R)-6-(2-(2-bromophenyl)morpholino)pyrimidine-2,4-diamine]
31 | > 6.30 | CNc1cc(N2CCN[C@H](c3ccccc3Br)C2)nc(NC)n1 (stereo in doubt) [Compound 131, (R/S)-6-(3-(2-bromophenyl)piperazin-1-yl)-N2,N4-dimethylpyrimidine-2,4-diamine]
32 | > 6.30 | Nc1nc(NCC2CC2)cc(N2CCOC(c3ccccc3Br)C2)n1 (single isomer, unassigned) [Compound 78, R or S-6-(2-(2-bromophenyl)morpholino)-N^4-(cyclopropylmethyl)pyrimidine-2,4-diamine]
33 | > 6.30 | CNc1cc(N2CCC[C@@H](c3ccccc3Br)C2)nc(N)n1 (stereo in doubt) [Compound 87, (S/R)-6-(3-(2-bromophenyl)piperidin-1-yl)-N4-methylpyrimidine-2,4-diamine]
34 | < 5.30 | CC(C)c1cc(N2CCNC(c3nnc[nH]3)C2)nc(N)n1 (stereo not drawn) [Compound 204, 4-(3-(4H-1,2,4-triazol-3-yl)piperazin-1-yl)-6-isopropylpyrimidin-2-amine]
35 | > 6.30 | CC(C)c1cc(N2CC[C@@H](F)[C@@H](c3ccccc3Br)C2)nc(N)n1 [Compound 221, 4-((3S,4R)-3-(2-bromophenyl)-4-fluoropiperidin-1-yl)-6-isopropylpyrimidin-2-amine]
36 | 5.30 to 6.30 | CNc1cc(N2CCN(C)[C@H](c3ccccc3Br)C2)nc(N)n1 (stereo in doubt) [Compound 154]
